Series [1] in a line: Measurement of Log P values by HPLC on reversed phase columns (EEC directive 79/831 Annex V.A8). In kind it is physicochemical. The following applies: Table 1, compounds of formula (I); method [a]: LC-UV, acidic range, 0.1% formic acid in water and acetonitrile.
For series [2], the system named is Colletotrichum lindemuthianum. As to the kind of experiment: Colletotrichum lindemuthianum in vitro cell test. In kind it is cell-based. Particulars: 144 h, liquid culture, 6 days incubation, read-out: efficacy (inhibition of fungal growth); for inhibition at 50 µM: 50 μMol/l of active ingredient; for inhibition at 20 ppm: 20 ppm of active ingredient. In outline:
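Inhibition of spore germination and mycelium growth, as absorbance relative to untreated wells, was read on day 6. Compounds from DMSO stocks were added to a spore suspension in glucose/peptone/yeast extract broth.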

The test system of series [3] is Alternaria alternata. The series can be described thus: Alternaria alternata in vitro cell test. Particulars: 120 h, liquid culture, 5 days incubation, read-out: efficacy (inhibition of fungal growth); for inhibition at 50 µM: 50 μMol/l of active ingredient; for inhibition at 20 ppm: 20 ppm of active ingredient. The series is classed as cell-based. Summed up: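 Spores in glucose/mycological peptone/yeast extract liquid medium were exposed to DMSO-dissolved fungicides for 5 days. Inhibition of germination and mycelial growth was read spectrophotometrically, comparing absorbance against fungicide-free control wells.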

Series [4] deals with Pyricularia oryzae. As to the kind of experiment: microbe, parasite or virus in culture. The series is classed as cell-based. The following applies: 120 h; for inhibition at 50 µM: read-out: efficacy (inhibition of fungal growth), 50 μMol/l of active ingredient, liquid culture, 5 days incubation; for inhibition at 20 ppm: read-out: efficacy (inhibition of fungal growth), 20 ppm of active ingredient, liquid culture, 5 days incubation.

The subject of series [5] is Botrytis cinerea. The series can be described thus: Botrytis cinerea in vitro cell test. In kind it is cell-based. Particulars: 144 h, liquid culture, 6 days incubation, read-out: efficacy (inhibition of fungal growth); for inhibition at 50 µM: 50 μMol/l of active ingredient; for inhibition at 20 ppm: 20 ppm of active ingredient. In outline: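 Liquid-culture germination/growth test: spore suspension in synthetic medium (salts, urea, KNO3, saccharose, trace elements, thiamine, biotin) with compound dissolved in DMSO. Absorbance of mycelial growth measured at day 6, compared with untreated wells to give inhibition.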

Series [6] deals with Alternaria brassicae. As to the kind of experiment: In vivo preventive test on Alternaria brassicae (leaf spot on radish or cabbage). Particulars: 500 ppm of active ingredient, sprayed on young radish or cabbage plants 24 h before inoculation, evaluated 3 to 4 days after inoculation, read-out: efficacy. In outline:
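Young radish or cabbage plants sprayed preventively with compound formulated in DMSO/acetone/Tween 80 and diluted in water; vehicle-treated plants as controls. Leaves inoculated by spraying an aqueous Alternaria brassicae spore suspension 24 h after treatment.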

Series [7] concerns Pyrenophora teres. As to the kind of experiment: Pyrenophora teres in vitro cell test. In kind it is cell-based. The following applies: 144 h, liquid culture, 6 days incubation, read-out: efficacy (inhibition of fungal growth); for inhibition at 50 µM: 50 μMol/l of active ingredient; for inhibition at 20 ppm: 20 ppm of active ingredient. In outline:
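Compounds in DMSO were added to P. teres spore suspensions in glucose/peptone/yeast-extract liquid medium, testing inhibition of spore germination and mycelium growth. After 6 days, mycelium growth was read by absorbance. Inhibition was calculated relative to fungicide-free control wells.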

The subject of series [8] is Colletotrichum lindemuthianum. The series can be described thus: In vivo preventive test on Colletotrichum lindemuthianum (leaf spot on bean). The following applies: 168 h, 500 ppm of active ingredient, sprayed on young bean plants 24 h before inoculation, evaluated 7 days after inoculation, read-out: efficacy. How it is done:
B-4. […] The active ingredients were made soluble and homogenized in a mixture of Dimethyl sulfoxide/Acetone//Tween® 80 and then diluted in water to the desired concentration. The young plants of bean were treated by spraying the active ingredient prepared as described above. Control plants were treated only with an aqueous solution of Acetone/Dimethyl sulfoxide/Tween® 80. After 24 hours, the plants were contaminated by spraying the leaves with an aqueous suspension of Colletotrichum lindemuthianum spores.

Series [9] concerns Fusarium culmorum. The series can be described thus: Fusarium culmorum in vitro cell test. Particulars: 120 h, liquid culture, 5 days incubation, read-out: efficacy (inhibition of fungal growth); for inhibition at 50 µM: 50 μMol/l of active ingredient; for inhibition at 20 ppm: 20 ppm of active ingredient. The series is classed as cell-based. Summed up: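 Spores in liquid mineral-salts/saccharose medium exposed to compounds (DMSO ≤1% final) for 5 days. Mycelium growth measured spectrometrically, with inhibition derived from absorbance relative to fungicide-free control wells.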

In series [10] the test system is Botrytis cinerea. The series can be described thus: In vivo preventive test on Botrytis cinerea (grey mould). The following applies: 500 ppm of active ingredient, sprayed on young gherkin or cabbage plants 24 h before inoculation, evaluated 4 to 5 days after inoculation, read-out: efficacy. In outline: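 Young plants of gherkin or cabbage were sprayed with water-diluted compound formulated in DMSO/acetone/Tween 80, with solvent-only controls. Inoculation followed 24 h later by spraying an aqueous spore suspension of Botrytis cinerea onto leaves.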

Series [11] relates to Septoria tritici. The series can be described thus: Septoria tritici in vitro cell test. The following applies: Zymoseptoria tritici, 168 h; 20 ppm of active ingredient; liquid culture, 7 days incubation; read-out: efficacy (inhibition of fungal growth). In kind it is cell-based. The procedure:
B-11. Septoria tritici In Vitro Cell Test • Solvent: DMSO • Culture medium: 1 g KH2PO4 (VWR), 1 g K2HPO4 (VWR), 0.5 g Urea (VWR), 3 g KNO3 (Prolabo), 10 g saccharose (VWR), 0.5 g MgSO4, 7H2O (Sigma), 0.07 g CaCl2, 2H2O (Prolabo), 0.2 mg MnSO4, H2O (Sigma), 0.6 mg CuSO4, 5H2O (Sigma), 7.9 mg ZnSO4, 7H2O (Sigma), 0.1 mg H3BO3 (Merck), 0.14 mg NaMoO4, 2H2O (Sigma), 2 mg thiamine (Sigma), 0.1 mg biotine (VWR), 4 mg FeSO4, 7H2O (Sigma), QSP 1 liter • Inoculum: spore suspension Fungicides were solubilized in DMSO and the solution used to prepare the required range of concentrations. […] A spore suspension of S. tritici was prepared and diluted to the desired spore density. Fungicides were evaluated for their ability to inhibit spore germination and mycelium growth in liquid culture assay. The compounds were added in the desired concentration to the culture medium with spores. […] Inhibition of fungal growth was determined by comparing the absorbance values in wells containing the fungicides with the absorbance in control wells without fungicides.

The record followed here is US20250042886A1, “BIS(HETERO)ARYL THIOETHER OXADIAZINES AS FUNGICIDAL COMPOUNDS” (Bayer Aktiengesellschaft, priority 2021, published 2025).

As usually defined, the chromatographic logP is lipophilicity estimated from chromatographic retention. Read a low chromatographic logP as lower lipophilicity.

`Cc1cccc(Sc2nnc3ccccc3c2C2=NOC[C@H](c3ccc(C)s3)N2)c1` (racemic) [Compound I-062]: in series [1], the chromatographic logP turned out to be 3.47. For the same molecule, the inhibition at 50 µM lay in the range of 90 to 100% in series [2]; 90 to 100% in [3]; 80 to 89% in series [4]; 90 to 100% in series [5]; 90 to 100% in [7]; 90 to 100% in series [9]. The pest or weed control at 500 ppm in series [6], in series [8] and in [10] was 90 to 100% in each case.
`COc1cccc(Sc2cnc(C)nc2C2=NOC[C@H](Cc3ccc(C)cc3C)N2)c1` (racemic) [Compound I-009] yielded a chromatographic logP in series [1] of 4.67. The inhibition at 20 ppm in series [11] lay in the range of 70 to 79%; in [2], 80 to 89%; in series [5], 90 to 100%. The pest or weed control at 500 ppm in series [6] is 80 to 89%; in series [8] it was 70 to 79%; in series [10], 80 to 89%.
Regarding `Cc1ccc(C[C@@H]2CON=C(c3cc(Cl)nnc3S(=O)(=O)c3ccc(C(F)(F)F)cc3)N2)c(C)c1` (racemic) [Compound I-018], the chromatographic logP in series [1] turned out to be 4.28. Besides, the inhibition at 20 ppm in series [11] lay in the range of 90 to 100%; in series [2], 80 to 89%; in series [4], 90 to 100%.
In series [1], `Cc1cccc(Sc2cnc(Cl)cc2C2=NOC[C@@H](Cc3ccc(Cl)cc3Cl)N2)c1` (racemic) [Compound I-011] came in with a chromatographic logP of 4.86. The inhibition at 20 ppm in series [11] lay within 90 to 100%; in series [2], 90 to 100%; in series [3] it was 70 to 79%; in series [4], 90 to 100%; in series [5], 90 to 100%; in [7] it was 90 to 100%. In addition, the inhibition at 20 ppm in [9] lay within 90 to 100%. The pest or weed control at 500 ppm in series [10] lay within 90 to 100%.
In turn, `Cc1ccc([C@H]2CON=C(c3c(Sc4cccc(C(F)(F)F)c4)nnc4ccccc34)N2)s1` (racemic) [Compound I-109] had a chromatographic logP in [1] of 3.81. Further, the inhibition at 50 µM in series [2] is 90 to 100%; in series [3] it was 90 to 100%; in [4], 70 to 79%; in series [5], 90 to 100%; in series [7], 90 to 100%; in [9], 80 to 89%. Besides, the pest or weed control at 500 ppm in series [6], in series [8] and in series [10] was 90 to 100% each time.
In turn, `Cc1ccc(C[C@H]2CON=C(c3c(Sc4cccc(Cl)c4)cnc4ccccc34)N2)c(C)c1` (racemic) [Compound I-024] gave a chromatographic logP in [1] of 4.46. In addition, the inhibition at 20 ppm in series [11], in series [2], in series [3], in [4], in series [5] and in series [7] was 90 to 100% each time. For the same molecule, the inhibition at 20 ppm in series [9] lay in the range of 90 to 100%.
Regarding `Clc1cccc(Sc2cnc(Cl)cc2C2=NOC[C@@H](Cc3ccc(Cl)cc3Cl)N2)c1` (racemic) [Compound I-008], the chromatographic logP in series [1] was found to be 4.9. Moreover, the inhibition at 20 ppm was 90 to 100% in series [11]; 90 to 100% in [2]; 80 to 89% in [3]; 90 to 100% in [4]; 90 to 100% in series [5]; 90 to 100% in [7]. Also, the inhibition at 20 ppm in series [9] lay within 90 to 100%.
Regarding `Cc1ccc([C@H]2CON=C(c3c(Sc4cccc(Cl)c4)nnc4ccccc34)N2)s1` (racemic) [Compound I-135], the chromatographic logP in series [1] turned out to be 3.61. Moreover, the inhibition at 50 µM in [2], in series [3], in series [4], in [5], in [7] and in series [9] was 90 to 100% throughout. The pest or weed control at 500 ppm in series [6], in [8] and in series [10] was 90 to 100% in each case.
`Cc1cccc(Sc2nnc(C)c(C)c2C2=NOC[C@H](c3cc(C)sc3C)N2)c1` (racemic) [Compound I-078] gave a chromatographic logP in series [1] of 3.33. Moreover, the inhibition at 50 µM in series [2] fell in the range of 90 to 100%; in series [3], 80 to 89%; in [4], 80 to 89%; in series [5] it was 90 to 100%; in [7], 90 to 100%; in [9], 80 to 89%. Besides, the pest or weed control at 500 ppm in series [6], in series [8] and in [10] was 90 to 100% in each case.
Molecule `FC(F)(F)c1cccc(Sc2nnc(Cl)cc2C2=NOC[C@H](Cc3ccc(Cl)cc3Cl)N2)c1` (racemic) [Compound I-016] yielded a chromatographic logP in series [1] of 4.86. Besides, the inhibition at 20 ppm in series [11] lay within 70 to 79%; in series [2], 90 to 100%; in series [4], 80 to 89%; in series [5], 90 to 100%; in series [7], 90 to 100%.
For the molecule `COc1cccc(Sc2cnc3ccccc3c2C2=NOC[C@H](Cc3ccc(C)cc3C)N2)c1` (racemic) [Compound I-012], the chromatographic logP in series [1] worked out at 4.06. In addition, the inhibition at 20 ppm in series [11] was in the range of 70 to 79%; in series [2], 90 to 100%; in series [5] it was 90 to 100%; in [7] it was 90 to 100%.
With `Cc1ccc([C@H]2CON=C(c3c(Sc4cccc(Cl)c4F)nnc4ccccc34)N2)s1` (racemic) [Compound I-108], in [1], the chromatographic logP is 3.68. Besides, the inhibition at 50 µM in series [2], in series [3], in series [4], in series [5], in series [7] and in series [9] was 90 to 100% each time. In addition, the pest or weed control at 500 ppm in [6], in [8] and in series [10] was 90 to 100% each time.
